In brackets after ≈: the same amount, converted by molar mass. Read-outs that look alike come from different tables or passages of the source.
Columns and labels:
Test in all cases: In vitro antibacterial activity test (broth microdilution)
Format in all cases: cell-based
[1] = tested on: M. catarrhalis 2524; details: Moraxella catarrhalis
Method in brief: (§1)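 MIC90 was determined by CLSI broth microdilution against clinical isolates, as the lowest concentration inhibiting visible growth of 90% of organisms relative to untreated control. Final compound concentrations spanned 0.0626–128 ug/mL with 2.5% (V/V) DMSO.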

[2] = tested on: P. aeruginosa 1912E; details: Pseudomonas aeruginosa, 1912E
Method in brief: as §1

[3] = tested on: A. baumannii 46
Method in brief: as §1

[4] = tested on: K. pneumoniae β9; details: Klebsiella pneumoniae
Method in brief: as §1

[5] = tested on: K. pneumoniae β13; details: Klebsiella pneumoniae
Method in brief: as §1

[6] = tested on: P. aeruginosa 40
Method in brief: as §1

[7] = tested on: P. aeruginosa 37; details: Pseudomonas aeruginosa, 37, P. aeruginosa 37
Method in brief: as §1

[8] = tested on: P. aeruginosa 6065Y; details: Pseudomonas aeruginosa
Method in brief: as §1

[9] = tested on: E. coli AG100; details: Escherichia coli
Method in brief: as §1

[10] = tested on: E. coli β4; details: Escherichia coli
Method in brief: as §1

[11] = tested on: A. baumannii 52; details: Acinetobacter baumannii
Method in brief: as §1

[12] = tested on: A. calcoaceticus ATCC15473; details: Acinetobacter calcoaceticus
Method in brief: as §1

[13] = tested on: K. pneumoniae 2011E; details: Klebsiella pneumoniae, 2011E
Method in brief: as §1

[14] = tested on: K. pneumoniae β14; details: Klebsiella pneumoniae
Method in brief: as §1

[15] = tested on: K. pneumoniae β10; details: Klebsiella pneumoniae
Method in brief: as §1

[16] = tested on: P. aeruginosa 43; details: Pseudomonas aeruginosa
Method in brief: as §1

[17] = tested on: K. pneumoniae β11; details: Klebsiella pneumoniae
Method in brief: as §1

[18] = tested on: E. cloacae β19; details: Enterobacter cloacae
Method in brief: as §1

[19] = tested on: A. baumannii 49
Method in brief: as §1

[20] = M. catarrhalis 2524, read-out: MIC90
[21] = Acinetobacter baumannii, A. baumannii 46, read-out: MIC90
[22] = K. pneumoniae β9, read-out: MIC90
[23] = K. pneumoniae β13, read-out: MIC90
[24] = Pseudomonas aeruginosa, 40, P. aeruginosa 40, read-out: MIC90
[25] = AG100, E. coli AG100, read-out: MIC90
[26] = A. baumannii 52, read-out: MIC90
[27] = A. calcoaceticus ATCC15473, read-out: MIC90
[28] = K. pneumoniae 2011E, read-out: MIC90
[29] = K. pneumoniae β10, read-out: MIC90
[30] = P. aeruginosa 43, read-out: MIC90
[31] = K. pneumoniae β11, read-out: MIC90
[32] = Acinetobacter baumannii, A. baumannii 49, read-out: MIC90
[33] = Acinetobacter baumannii, 46, A. baumannii 46
[34] = ATCC15473, A. calcoaceticus ATCC15473
[35] = Acinetobacter baumannii, 49, A. baumannii 49

Row | MIC90 [1, 20] | MIC90 ([2]; read-out: MIC90) | MIC90 [3, 21] | MIC90 [4, 22] | MIC90 [5, 23] | MIC90 [6, 24] | MIC90 ([7]; read-out: MIC90) | MIC90 ([8]; read-out: MIC90) | MIC90 [9, 25] | MIC90 ([10]; read-out: MIC90) | MIC90 [11, 26] | MIC90 [12, 27] | MIC90 [13, 28] | MIC90 ([14]; read-out: MIC90) | MIC90 [15, 29] | MIC90 [16, 30] | MIC90 [17, 31] | MIC90 ([18]; read-out: MIC90) | MIC90 [19, 32] | SMILES | MIC90 [1]; 2524 | also measured
1 | 2 µg/mL (≈ 2.58 µM) | 0.5 µg/mL (≈ 0.646 µM) | 32 µg/mL (≈ 41.4 µM) | 2 µg/mL (≈ 2.58 µM) | 0.125 µg/mL (≈ 0.162 µM) | 0.5 µg/mL (≈ 0.646 µM) | 0.5 µg/mL (≈ 0.646 µM) | 2 µg/mL (≈ 2.58 µM) | 0.25 µg/mL (≈ 0.323 µM) | 4 µg/mL (≈ 5.17 µM) | > 128 µg/mL | 2 µg/mL (≈ 2.58 µM) | 4 µg/mL (≈ 5.17 µM) | 16 µg/mL (≈ 20.7 µM) | 0.5 µg/mL (≈ 0.646 µM) | 0.5 µg/mL (≈ 0.646 µM) | 8 µg/mL (≈ 10.3 µM) | 2 µg/mL (≈ 2.58 µM) | > 128 µg/mL | CC(C)(O/N=C(\C(=O)N[C@@H]1C(=O)N2C(C(=O)[O-])=C(C[n+]3cnc(NCCNC(=O)c4cc(=O)c(O)cn4O)c(N)c3)CSC12)c1csc(N)n1)C(=O)O (stereo partly drawn) [Compound 6] | – | –
2 | – | – | – | – | – | – | – | – | – | – | – | – | – | – | – | – | – | – | – | CC(C)(O/N=C(\C(=O)N[C@@H]1C(=O)N2C(C(=O)[O-])=C(/C=C/C[n+]3cnc(N)c(NC(=O)CN)c3N)CSC12)c1csc(N)n1)C(=O)O (stereo partly drawn) [Compound 43] | < 0.0625 µg/mL | MIC90 [2]: 4 µg/mL (≈ 5.92 µM); MIC90 [3, 33]: 32 µg/mL (≈ 47.4 µM); MIC90 [4]: 1 µg/mL (≈ 1.48 µM); MIC90 [5]: 0.5 µg/mL (≈ 0.74 µM); MIC90 ([6]; Pseudomonas aeruginosa, 40): 16 µg/mL (≈ 23.7 µM); MIC90 [7]: 32 µg/mL (≈ 47.4 µM); MIC90 ([8]; 6065Y): 16 µg/mL (≈ 23.7 µM); MIC90 ([9]; AG100): 0.25 µg/mL (≈ 0.37 µM); MIC90 [10]: 0.5 µg/mL (≈ 0.74 µM); MIC90 [11]; 52: > 128 µg/mL; MIC90 [12, 34]: 4 µg/mL (≈ 5.92 µM); MIC90 [13]: 0.5 µg/mL (≈ 0.74 µM); MIC90 [14]: 1 µg/mL (≈ 1.48 µM); MIC90 [15]: 0.5 µg/mL (≈ 0.74 µM); MIC90 [16]; 43: > 128 µg/mL; MIC90 [17]: 32 µg/mL (≈ 47.4 µM); MIC90 [18]: 0.5 µg/mL (≈ 0.74 µM); MIC90 [19, 35]: > 128 µg/mL
3 | 0.5 µg/mL (≈ 0.636 µM) | 0.25 µg/mL (≈ 0.318 µM) | 0.5 µg/mL (≈ 0.636 µM) | 1 µg/mL (≈ 1.27 µM) | 0.25 µg/mL (≈ 0.318 µM) | < 0.0625 µg/mL | 0.25 µg/mL (≈ 0.318 µM) | 0.25 µg/mL (≈ 0.318 µM) | < 0.0625 µg/mL | 1 µg/mL (≈ 1.27 µM) | > 128 µg/mL | 0.5 µg/mL (≈ 0.636 µM) | 0.125 µg/mL (≈ 0.159 µM) | 64 µg/mL (≈ 81.4 µM) | 0.125 µg/mL (≈ 0.159 µM) | 0.25 µg/mL (≈ 0.318 µM) | > 128 µg/mL | 2 µg/mL (≈ 2.55 µM) | > 128 µg/mL | C[C@H](O/N=C(\C(=O)N[C@@H]1C(=O)N2C(C(=O)[O-])=C(/C=C/C[n+]3cnc(N)c(NCCNC(=O)c4cc(=O)c(O)cn4O)c3)CSC12)c1csc(N)n1)C(=O)O (stereo partly drawn) [Compound 9] | – | –
4 | – | – | – | – | – | – | – | – | – | – | – | – | – | – | – | – | – | – | – | CC(C)(O/N=C(\C(=O)N[C@@H]1C(=O)N2C(C(=O)[O-])=C(/C=C/C[n+]3cnc(N)c(NC(=O)CCN)c3)CSC12)c1nsc(N)n1)C(=O)O (stereo partly drawn) [Compound 61] | < 0.0625 µg/mL | MIC90 [2]: 2 µg/mL (≈ 2.96 µM); MIC90 [3, 33]: 128 µg/mL (≈ 189 µM); MIC90 [4]: 16 µg/mL (≈ 23.7 µM); MIC90 [5]: 2 µg/mL (≈ 2.96 µM); MIC90 ([6]; Pseudomonas aeruginosa, 40): 2 µg/mL (≈ 2.96 µM); MIC90 [7]: 32 µg/mL (≈ 47.4 µM); MIC90 ([8]; 6065Y): 32 µg/mL (≈ 47.4 µM); MIC90 ([9]; AG100): 0.125 µg/mL (≈ 0.185 µM); MIC90 [10]: 0.125 µg/mL (≈ 0.185 µM); MIC90 [11]; 52: 128 µg/mL (≈ 189 µM); MIC90 [12, 34]: 1 µg/mL (≈ 1.48 µM); MIC90 [13]: 0.25 µg/mL (≈ 0.37 µM); MIC90 [14]: 4 µg/mL (≈ 5.92 µM); MIC90 [15]: 1 µg/mL (≈ 1.48 µM); MIC90 [16]; 43: > 128 µg/mL; MIC90 [17]: > 128 µg/mL; MIC90 [18]: 16 µg/mL (≈ 23.7 µM); MIC90 [19, 35]: 128 µg/mL (≈ 189 µM)
5 | 0.25 µg/mL (≈ 0.33 µM) | 1 µg/mL (≈ 1.32 µM) | 2 µg/mL (≈ 2.64 µM) | 2 µg/mL (≈ 2.64 µM) | 0.5 µg/mL (≈ 0.661 µM) | 0.25 µg/mL (≈ 0.33 µM) | 16 µg/mL (≈ 21.1 µM) | 2 µg/mL (≈ 2.64 µM) | 0.25 µg/mL (≈ 0.33 µM) | 1 µg/mL (≈ 1.32 µM) | 8 µg/mL (≈ 10.6 µM) | 0.25 µg/mL (≈ 0.33 µM) | 2 µg/mL (≈ 2.64 µM) | 8 µg/mL (≈ 10.6 µM) | 0.5 µg/mL (≈ 0.661 µM) | 0.25 µg/mL (≈ 0.33 µM) | 64 µg/mL (≈ 84.6 µM) | 64 µg/mL (≈ 84.6 µM) | > 128 µg/mL | CC(C)(O/N=C(\C(=O)N[C@@H]1C(=O)N2C(C(=O)[O-])=C(/C=C/C[n+]3cnc(N)c(NC(=O)c4cc(=O)c(O)cn4O)c3)CSC12)c1csc(N)n1)C(=O)O (stereo partly drawn) [Compound 14] | – | –
6 | – | – | – | – | – | – | – | – | – | – | – | – | – | – | – | – | – | – | – | CC(C)(O/N=C(\C(=O)N[C@@H]1C(=O)N2C(C(=O)[O-])=C(/C=C/C[n+]3cnc(N)c(NC(=O)CCCN)c3)CSC12)c1csc(N)n1)C(=O)O (stereo partly drawn) [Compound 63] | < 0.0625 µg/mL | MIC90 [2]: 2 µg/mL (≈ 2.9 µM); MIC90 [3, 33]: 8 µg/mL (≈ 11.6 µM); MIC90 [4]: 1 µg/mL (≈ 1.45 µM); MIC90 [5]: 1 µg/mL (≈ 1.45 µM); MIC90 ([6]; Pseudomonas aeruginosa, 40): 4 µg/mL (≈ 5.81 µM); MIC90 [7]: 32 µg/mL (≈ 46.5 µM); MIC90 ([8]; 6065Y): 16 µg/mL (≈ 23.2 µM); MIC90 ([9]; AG100): 0.125 µg/mL (≈ 0.181 µM); MIC90 [10]: 0.25 µg/mL (≈ 0.363 µM); MIC90 [11]; 52: 128 µg/mL (≈ 186 µM); MIC90 [12, 34]: 1 µg/mL (≈ 1.45 µM); MIC90 [13]: 0.25 µg/mL (≈ 0.363 µM); MIC90 [14]: 1 µg/mL (≈ 1.45 µM); MIC90 [15]: 0.5 µg/mL (≈ 0.726 µM); MIC90 [16]; 43: 128 µg/mL (≈ 186 µM); MIC90 [17]: 32 µg/mL (≈ 46.5 µM); MIC90 [18]: 16 µg/mL (≈ 23.2 µM); MIC90 [19, 35]: 128 µg/mL (≈ 186 µM)

Reference: patent US9630977B2, “Cephalosporin derivatives and pharmaceutical compositions thereof” (Legochem Biosciences, Inc., priority 2011, dated 2017)
